Experiment [1] deals with Spontaneously hypertense rats. The experiment is described as follows: Test 2: Lowering of the arterial pressure in conscious hypertense rats. Format: in vivo, rat. The conditions noted are these: caudal artery, 3 animals, value ± SEM. How it is done: Test 2: Lowering of the arterial pressure in conscious hypertense rats.
Spontaneously hypertense rats (between 200 and 250 g of body weight) of more than 8 weeks of age have been used. Diastolic and systolic arterial pressure of the rat was measured at the caudal artery using a special sphygnomanometer (Letica 5007 and 5007/4) attached to the animal's tail. To ensure rapid and reliable data, animals were placed in a heating plate at 37 °C, with the aim to produce a vasodilatation that ensured a better fixation of the rat tail to the transducer chamber. During the experiment, rats are conscious and fixed to a clamp. The tested products were administered orally. Arterial pressure was measured every 30 minutes and 10 minutes before the administration of the tested compound. The decrease of the arterial pressure was calculated for each compound at a dose of 1 mg/Kg, using 3 animals.

For experiment [2], the system named is portal vein isolated from rat. The experiment in a line: Test 1: Inhibition of the contraction induced by noradrenaline in portal vein isolated from rat. As to conditions: 0.5 h. The procedure: Test 1: Inhibition of the contraction induced by noradrenaline in portal vein isolated from rat.
Portal vein was extracted from adult male rats (between 200 and 250 g of body weight), which had been stunned by a blow in the head. Portal vein was installed into an isolated organ bath (Letica) containing a physiological saline solution (Hamilton et al., Br. J. Pharmacol., 1986, 88, 103-111) at 37 C and a gas bubbler (5% C02 and 95% 02). Contractions were induced by noradrenaline (3µM) and were reverted after thoroughly washing with physiological saline solution. Portal vein contraction was measured with an isometric force transducer and with an initial tension of 1 g. After two contractions with noradrenaline, performed in order to measure the tissue's basal response, the tested compounds were incubated for 30 minutes and a new contraction was induced.

The subject of experiment [3] is trachea isolated from guinea pig. The experiment is described as follows: Test 3: Direct relaxation of the trachea isolated from guinea pig. The conditions noted are these: 50% of the maximum relaxation, maximum = relaxation induced by isoproterenol at 1x10-6 M, cumulative addition. The procedure:
Test 3 -Direct relaxation of the trachea isolated from guinea pig.
This test was performed according to the experimental model described by Emmerson, J. and Mackay, D. (J. Pharm. Pharmacol., 1979, 31, 798). Tracheas were extracted from male guinea pigs of 400 g of body weight, which had been stunned by a blow in the head. Then, tracheas were cut in zigzag and placed into an isolated organ bath (Letica) containing Krebs-Henseleit solution at 37 °C and were bubbled with carbogen (95% 02 and 5% C02). The relaxation of the trachea was measured using an isometric force transducer. The basal tension was 0.5 g.

As to `Cn1nc(O[C@@H]2c3cc(C#N)ccc3C(=O)C(C)(C)[C@H]2O)ccc1=O` (racemic) [Compound 2, Rac-Trans-2,2-dimethyl-3-hydroxy-4-(6-hydroxy-1-methyl-3-pyridazinyloxy)-1-oxo-1,2,3,4-tetrahydronaphthalen-6-carbonitrile], in experiment [1], the “Pressure Decrease (mm Hg) ± SEM (1 mg/Kg p.o.)” value was found to be 112.0 ± 1.0 mm Hg. This compound yielded an IC50 in experiment [2] of 2.8 µM. Also, it took 0.31 µM to reach a half-maximal effect in experiment [3] (Cavia porcellus) (EC50).

For `CC1(C)C(=O)c2ccc(C#N)cc2[C@@H](Oc2ccc(O)nn2)[C@@H]1O` (relative stereo) [Compound 1, Trans-2,2-dimethyl-3-hydroxy-4-(6-hydroxy-3-pyridazinyloxy)-1-oxo-1,2,3,4-tetrahydronaphthalen-6-carbonitrile], the “Pressure Decrease (mm Hg) ± SEM (1 mg/Kg p.o.)” value in experiment [1] was determined as 116.0 ± 5.9 mm Hg. In addition, inhibition in experiment [2] was half-maximal at 8.8 µM (IC50). In addition, in experiment [3] (Cavia porcellus), the EC50 came to 5.2 µM.

For the compound `C=CCn1nc(O[C@@H]2c3cc(C#N)ccc3C(=O)C(C)(C)[C@H]2O)ccc1=O` (relative stereo) [Compound 5, Trans-2,2-dimethyl-3-hydroxy-4-[6-hydroxy-1-(2-propenyl)-3-pyridazinyloxy]-1-oxo-1,2,3,4-tetrahydronaphthalen-6-carbonitrile], the “Pressure Decrease (mm Hg) ± SEM (1 mg/Kg p.o.)” value in experiment [1] was 20.5 ± 0.5 mm Hg. Also, the IC50 in experiment [2] is 14 µM. In experiment [3] (Cavia porcellus), this compound came in with an EC50 of 3.3 µM.

In the case of `CC1(C)C(=O)c2ccc(Br)cc2[C@@H](Oc2ccc(O)nn2)[C@@H]1O` (relative stereo) [Compound 8, Trans-6-bromo-2,2-dimethyl-3-hydroxy-4-(6-hydroxy-3-pyridazinyloxy)-1,2,3,4-tetrahydronaphthalen-1-one], the “Pressure Decrease (mm Hg) ± SEM (1 mg/Kg p.o.)” value in experiment [1] was determined as 46.5 ± 0.3 mm Hg. Also, half-maximal inhibition in experiment [2] (IC50) was put at 0.8 µM. In experiment [3] (Cavia porcellus), the EC50 was 15.6 µM.

In the case of `CC1(C)C(=O)c2ccc(C#N)cc2[C@@H](Oc2ccccn2)[C@@H]1O` (relative stereo) [Compound 11, Trans-2,2-dimethyl-3-hydroxy-1-oxo-4-(2-pyridyloxy)-1,2,3,4-tetrahydronaphthalen-6-carbonitrile], the “Pressure Decrease (mm Hg) ± SEM (1 mg/Kg p.o.)” value in experiment [1] is recorded as 43.0 ± 16.0 mm Hg. Also, in experiment [2], the midpoint of inhibition, the IC50, lay at 25 µM. The EC50 in experiment [3] (Cavia porcellus) is 5.8 µM.

As to `CC1(C)C(=O)c2ccc(C#N)cc2[C@@H](OC2=CC(=O)CC2)[C@@H]1O` (relative stereo) [Compound 12, Trans-2,2-dimethyl-3-hydroxy-1-oxo-4-(3-oxo-1-cyclopent-1-enyloxy)-1,2,3,4-tetrahydronaphthalen-6-carbonitrile], the “Pressure Decrease (mm Hg) ± SEM (1 mg/Kg p.o.)” value in experiment [1] is given as 50.0 ± 16.0 mm Hg.

On to `CC1(C)C(=O)c2ccc(C#N)cc2[C@@H](NC(=O)c2ccccn2)[C@@H]1O` (relative stereo) [Compound 14, Trans-2,2-dimethyl-3-hydroxy-1-oxo-4-(2-pyridylcarbonylamino)-1,2,3,4-tetrahydronaphthalen-6-carbonitrile], for which the “Pressure Decrease (mm Hg) ± SEM (1 mg/Kg p.o.)” value in experiment [1] worked out at 71.7 ± 14.2 mm Hg. The half-maximal inhibitory concentration (IC50) in experiment [2] turned out to be 23 µM.

In the case of `CC1(C)C(=O)c2ccc(C#N)cc2[C@@H](NC(=O)c2cccnc2)[C@@H]1O` (relative stereo) [Compound 15, Trans-2,2-dimethyl-3-hydroxy-1-oxo-4-(3-pyridylcarbonylamino)-1,2,3,4-tetrahydronaphthalen-6-carbonitrile], in experiment [1], the “Pressure Decrease (mm Hg) ± SEM (1 mg/Kg p.o.)” value worked out at 50.0 ± 9.8 mm Hg. Moreover, in experiment [2], the IC50 came to 2.8 µM. In experiment [3] (Cavia porcellus), this compound displayed an EC50 of 4.9 µM.

Turning to `CC1(C)C(=O)c2ccc(C#N)cc2[C@@H](NC(=O)c2ccoc2)[C@@H]1O` (relative stereo) [Compound 17, Trans-2,2-dimethyl-4-(3-furylcarbonylamino)-3-hydroxy-1-oxo-1,2,3,4-tetrahydronaphthalen-6-carbonitrile], the “Pressure Decrease (mm Hg) ± SEM (1 mg/Kg p.o.)” value in experiment [1] came out at 58.0 ± 17.5 mm Hg.

For the compound `CC1(C)C(=O)c2ccc(C#N)cc2[C@@H](NC(=O)c2ccccc2)[C@@H]1O` (relative stereo) [Compound 18, Trans-2,2-dimethyl-3-hydroxy-1-oxo-4-(phenylcarbonylamino)-1,2,3,4-tetrahydronaphthalen-6-carbonitrile], the “Pressure Decrease (mm Hg) ± SEM (1 mg/Kg p.o.)” value in experiment [1] was determined as 31.0 ± 11.9 mm Hg. Also, in experiment [3] (Cavia porcellus), a half-maximal effect (EC50) was put at 2.1 µM.

For `COc1ccc(C(=O)N[C@@H]2c3cc(C#N)ccc3C(=O)C(C)(C)[C@H]2O)cc1` (relative stereo) [Compound 19, Trans-2,2-dimethyl-3-hydroxy-4-(4-methoxyphenylcarbonylamino)-1-oxo-1,2,3,4-tetrahydronaphthalen-6-carbonitrile], the “Pressure Decrease (mm Hg) ± SEM (1 mg/Kg p.o.)” value in experiment [1] is 46.7 ± 8.6 mm Hg. In experiment [2], this compound had an IC50 of 12 µM. It took 0.3 µM to reach a half-maximal effect in experiment [3] (Cavia porcellus) (EC50).

`Cn1nc(O[C@@H]2c3cc(C#N)ccc3C(=O)C(C)(C)[C@H]2O)ccc1=O` (single isomer, unassigned) [Compound 3, (-)-Trans-2,2-dimethyl-3-hydroxy-4-(6-hydroxy-1-methyl-3-pyridazlnyloxy)-1-oxo-1,2,3,4-tetrahydronaphthalen-6-carbonitrile] displayed an EC50 in experiment [3] of 0.3 µM.

In experiment [3], `Cn1nc(O[C@@H]2c3cc(C#N)ccc3C(=O)C(C)(C)[C@H]2O)ccc1=O` (single isomer, unassigned) [Compound 4, ( + ).Trans-2,2-d i methyl-3-hyd roxy-4-(6-hydroxy-1-methyl-3-pyridazinyloxy)-1-oxo-1,2,3,4-tetrahydronaphthalen-6-carbonitrile] showed an EC50 of 4.6 µM.

In experiment [3] (Cavia porcellus), `CC(=NC#N)NC1c2cc(C#N)ccc2C(=O)C(C)(C)C1O` (stereo not drawn) [Compound 22, Trans-4-(N-cyanoacetimidoylamino)-2,2-dimethyl-3-hydroxy-1-oxo-1,2,3,4-tetrahydronaphthalen-6-carbonitrile] showed an EC50 of 1.8 µM.

For `CC1(C)C(=O)c2ccc(C#N)cc2C(Nc2cc(Cl)ncn2)C1O` (stereo not drawn) [Compound 23], in experiment [1], the “Pressure Decrease (mm Hg) ± SEM (1 mg/Kg p.o.)” value amounted to 45.5 ± 11.5 mm Hg. Besides, in experiment [2], the IC50 came out at 3.7 µM. The compound also displayed an EC50 in experiment [3] (Cavia porcellus) of 4.4 µM.

What is called IC50 is the midpoint of a concentration-inhibition curve. Broadly, the EC50 is the midpoint of the concentration-response curve. Read a high EC50 as lower potency in that assay.
